In data set [1] the target is T1, human histamine H1 receptor (Homo sapiens, UniProt P35367).
T1 construct: expressed in transfected cells; host or cells: CHO-K1
The data set is described as follows: Determination of Ki values at histamine H1 receptor ([3H]-Pyrilamine SPA binding). The settings on record: hH1, CHO-K1, [3H]-Pyrilamine 2 nM. The procedure: Example-48: Determination of Ki values at Histamine H1 receptor
• Receptor source: Recombinant mammalian cells (CHO-K1) • Radioligand: [^3H]-Pyrilamine (20.7 Ci/mmol) • Final ligand concentration: 2 nM • Non-specific determinant: 0.1 mM Pyrilamine • Reference compound: Pyrilamine • Positive control: Pyrilamine Incubation conditions: Reactions were carried out in buffer with pH 7.4 containing 67 mM Tris-HCl and SPA beads (0.1 mg/well) for 1 h at 37° C. Radioactivity proximal to SPA beads was determined by scintillation proximity assay and compared to the control values in order to ascertain any interactions of the test compound(s) with cloned human histamine H1 receptor binding site.

Data set [2] in a line: Rodent brain penetration study. The settings on record: male, Wistar, brain and plasma, po; rat, 3 mg/kg, p.o. @ 1 h; read-out: Rat Brain Penetration (Cbrain/Cplasma). In kind it is in vivo, Male Wistar rats. How it is done: Example-50: Rodent Brain Penetration Study Male Wistar rats (260±40 g) were used as experimental animals. Three animals were housed in each cage. Animals were given water and food ad libitum throughout the experiment and maintained on a 12 h light/dark cycle. Brain penetration was determined in discrete manner in rats. One day prior to dosing day, male Wistar rats were acclimatized and randomly grouped according to their weight. At each time point (0.50, 1 and 2 h) n=3 animals were used. The test compounds were suitably preformulated and administered orally at (free base equivalent) 3 mg/kg. Blood samples were removed via cardiac puncture by using isoflurane anesthesia. The animals were sacrificed to collect brain tissue. Plasma was separated and brain samples were homogenized and stored frozen at −20° C. until analysis. The concentrations of the test compounds in plasma and brain were determined using LC-MS/MS method. The test compounds were quantified in plasma and brain homogenate by qualified LC-MS/MS method using suitable extraction technique in the calibration range of 1-2000 ng/mL. Study samples were analyzed using calibration samples in the batch and quality control samples spread across the batch. Extent of brain-plasma ratio (Cbrain/Cplasma) was calculated

The target in data set [3] is T2, human 5-HT1A receptor (Homo sapiens, UniProt P08908).
T2 construct: expressed in transfected cells; host or cells: HEK293-EBNA
T2 sequence (P08908 1-422): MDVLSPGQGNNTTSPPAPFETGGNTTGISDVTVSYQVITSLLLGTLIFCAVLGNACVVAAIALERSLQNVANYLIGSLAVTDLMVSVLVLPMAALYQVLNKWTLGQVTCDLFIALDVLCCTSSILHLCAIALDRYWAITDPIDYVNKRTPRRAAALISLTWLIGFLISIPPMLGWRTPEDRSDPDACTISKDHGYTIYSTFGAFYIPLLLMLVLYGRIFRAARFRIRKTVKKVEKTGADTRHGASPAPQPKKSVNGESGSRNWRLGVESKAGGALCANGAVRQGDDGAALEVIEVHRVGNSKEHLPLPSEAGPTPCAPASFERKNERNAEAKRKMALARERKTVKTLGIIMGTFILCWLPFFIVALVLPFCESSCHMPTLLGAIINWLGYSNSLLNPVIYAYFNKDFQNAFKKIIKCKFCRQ
Kind of data set: Determination of Ki values at 5-HT1A receptor ([3H]-8-Hydroxy DPAT radioligand binding). The settings on record: h5-HT1A, HEK293-EBNA, [3H]-8-Hydroxy DPAT 0.8 nM. How it is done:
Example-43: Determination of Ki Values at 5-HT1A Receptor
• Receptor source: Recombinant mammalian cells (HEK293-EBNA) • Radioligand: [^3H]-8-Hydroxy DPAT (200 Ci/mmol) • Final ligand concentration: 0.8 nM • Non-specific determinant: 0.1 mM U92016A • Reference compound: U92016A • Positive control: U92016A Incubation conditions: Reactions were carried out in buffer with pH 7.4 containing 50 mM Tris-HCl, 0.5 mM EDTA, 10 mM MgSO4, 0.1% Ascorbic acid for 2 h at RT. The reaction was terminated by rapid vacuum filtration onto the glass fiber filters. Radioactivity trapped onto the filters was determined and compared to the control values in order to ascertain any interactions of the test compound(s) with cloned human 5-HT1A receptor binding site.

Data set [4] deals with T3, human 5-HT2A receptor (Homo sapiens, UniProt P28223).
T3 construct: expressed in transfected cells; host or cells: CHO-K1
The data set is described as follows: Determination of Ki values at 5-HT2A receptor ([3H]-Ketanserine radioligand binding). The following applies: h5-HT2A, CHO-K1, [3H]-Ketanserine 1.25 nM. How it is done:
Example-44: Determination of Ki Values at 5-HT2A Receptor
• Receptor source: Recombinant mammalian cells (CHO-K1) • Radioligand: [^3H]-Ketanserine (41.9 Ci/mmol) • Final ligand concentration: 1.25 nM • Non-specific determinant: 0.1 mM 1-Napthyl piperazine (1-NP) • Reference compound: 1-Napthyl piperazine (1-NP) • Positive control: 1-Napthyl piperazine (1-NP) Incubation conditions: Reactions were carried out in buffer with pH 7.4 containing 50 mM Tris-HCl, 4 mM CaCl2, 0.1% Ascorbic acid for 1 h at RT. The reaction was terminated by rapid vacuum filtration onto the glass fiber filters. Radioactivity trapped onto the filters was determined and compared to the control values in order to ascertain any interactions of the test compound(s) with cloned human 5-HT2A receptor binding site.

For data set [5], the target named is T4, human SERT (Homo sapiens, UniProt P31645).
T4 construct: expressed in transfected cells; host or cells: HEK293
The data set is described as follows: Determination of Ki values at SERT receptor ([3H]-Citalopram SPA binding). The following applies: hSERT, HEK293, [3H]-Citalopram 2 nM. The procedure:
Example-46: Determination of Ki Values at SERT Receptor
• Receptor source: Recombinant mammalian cells (HEK293) • Radioligand: [^3H]-Citalopram (80.8 Ci/mmol) • Final ligand concentration: 2 nM • Non-specific determinant: 0.1 mM Venlafaxine • Reference compound: Venlafaxine • Positive control: Venlafaxine Incubation conditions: Reactions were carried out in buffer with pH 7.4 containing 50 mM Tris-HCl, 150 mM NaCl, 5 mM KCl and Scintillation proximity assay (SPA) beads (0.1 mg/well) for 3 h at RT. Radioactivity proximal to SPA beads was determined by scintillation proximity assay and compared to the control values in order to ascertain any interactions of the test compound(s) with cloned human SERT receptor binding site.

Data set [6] concerns the target T5, human dopamine D2s receptor (Homo sapiens, UniProt P14416).
T5 construct: expressed in transfected cells; host or cells: CHO-K1
The data set is described as follows: Determination of Ki values at D2S receptor ([3H]-Raclopride radioligand binding). The following applies: hD2 (D2S), CHO-K1, [3H]-Raclopride 4 nM; read-out: Ki D2. The procedure:
Example-45: Determination of Ki Values at D2S Receptor
• Receptor source: Recombinant mammalian cells (CHO-K1) • Radioligand: [^3H]-Raclopride (80.8 Ci/mmol) • Final ligand concentration: 4 nM • Non-specific determinant: 0.1 mM Haloperidol • Reference compound: Haloperidol • Positive control: Haloperidol Incubation conditions: Reactions were carried out in buffer with pH 7.4 containing 50 mM Tris-HCl, 120 mM NaCl, 5 mM KCl, 5 mM MgCl2, 1 mM EDTA for 2 h at RT. The reaction was terminated by rapid vacuum filtration onto the glass fiber filters. Radioactivity trapped onto the filters was determined and compared to the control values in order to ascertain any interactions of the test compound(s) with cloned human dopamine D2s receptor binding site.

Where a name gives a salt, the structure may show the parent alone.

T3 sequence (P28223 whole entry): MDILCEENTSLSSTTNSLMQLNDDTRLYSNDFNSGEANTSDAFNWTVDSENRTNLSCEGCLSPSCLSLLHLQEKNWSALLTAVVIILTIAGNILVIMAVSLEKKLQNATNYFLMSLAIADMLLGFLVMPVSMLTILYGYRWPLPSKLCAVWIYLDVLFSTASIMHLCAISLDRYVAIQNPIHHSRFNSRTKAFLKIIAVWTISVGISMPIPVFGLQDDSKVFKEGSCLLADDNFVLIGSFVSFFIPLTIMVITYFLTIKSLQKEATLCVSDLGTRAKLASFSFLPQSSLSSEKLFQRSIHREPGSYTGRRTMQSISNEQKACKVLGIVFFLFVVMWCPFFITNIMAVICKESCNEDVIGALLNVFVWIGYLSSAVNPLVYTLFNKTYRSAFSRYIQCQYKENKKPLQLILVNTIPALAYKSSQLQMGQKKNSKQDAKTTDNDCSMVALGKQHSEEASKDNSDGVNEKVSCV
T4 sequence (P31645 whole entry): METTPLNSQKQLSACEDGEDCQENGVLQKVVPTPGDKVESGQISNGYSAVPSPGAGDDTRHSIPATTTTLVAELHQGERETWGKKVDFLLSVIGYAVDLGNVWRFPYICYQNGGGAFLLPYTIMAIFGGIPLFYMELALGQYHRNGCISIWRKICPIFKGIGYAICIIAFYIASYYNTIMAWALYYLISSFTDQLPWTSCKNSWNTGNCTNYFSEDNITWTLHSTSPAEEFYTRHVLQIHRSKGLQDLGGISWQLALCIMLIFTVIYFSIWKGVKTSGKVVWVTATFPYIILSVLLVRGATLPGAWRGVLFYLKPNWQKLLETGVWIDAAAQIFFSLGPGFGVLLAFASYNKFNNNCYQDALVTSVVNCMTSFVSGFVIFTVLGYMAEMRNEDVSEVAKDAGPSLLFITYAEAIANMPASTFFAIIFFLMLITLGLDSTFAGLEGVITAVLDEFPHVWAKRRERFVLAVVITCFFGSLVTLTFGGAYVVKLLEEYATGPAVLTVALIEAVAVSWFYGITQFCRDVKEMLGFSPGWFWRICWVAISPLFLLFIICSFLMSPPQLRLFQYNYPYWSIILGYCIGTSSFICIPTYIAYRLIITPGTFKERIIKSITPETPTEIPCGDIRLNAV
T1 sequence (P35367 whole entry): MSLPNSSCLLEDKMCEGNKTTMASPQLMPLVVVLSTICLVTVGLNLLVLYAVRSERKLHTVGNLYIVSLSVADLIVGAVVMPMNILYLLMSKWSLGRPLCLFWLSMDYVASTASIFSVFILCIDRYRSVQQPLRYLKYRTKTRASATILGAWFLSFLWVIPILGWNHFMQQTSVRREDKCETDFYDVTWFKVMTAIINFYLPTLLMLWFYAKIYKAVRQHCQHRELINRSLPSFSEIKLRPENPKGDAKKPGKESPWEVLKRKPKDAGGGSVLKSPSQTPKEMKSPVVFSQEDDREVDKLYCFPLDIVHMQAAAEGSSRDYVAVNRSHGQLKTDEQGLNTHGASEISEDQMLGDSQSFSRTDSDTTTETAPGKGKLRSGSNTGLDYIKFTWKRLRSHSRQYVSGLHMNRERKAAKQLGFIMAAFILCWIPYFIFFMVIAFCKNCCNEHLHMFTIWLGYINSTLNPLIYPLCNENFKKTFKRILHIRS
T5 sequence (P14416 1-414 isoform P14416-2): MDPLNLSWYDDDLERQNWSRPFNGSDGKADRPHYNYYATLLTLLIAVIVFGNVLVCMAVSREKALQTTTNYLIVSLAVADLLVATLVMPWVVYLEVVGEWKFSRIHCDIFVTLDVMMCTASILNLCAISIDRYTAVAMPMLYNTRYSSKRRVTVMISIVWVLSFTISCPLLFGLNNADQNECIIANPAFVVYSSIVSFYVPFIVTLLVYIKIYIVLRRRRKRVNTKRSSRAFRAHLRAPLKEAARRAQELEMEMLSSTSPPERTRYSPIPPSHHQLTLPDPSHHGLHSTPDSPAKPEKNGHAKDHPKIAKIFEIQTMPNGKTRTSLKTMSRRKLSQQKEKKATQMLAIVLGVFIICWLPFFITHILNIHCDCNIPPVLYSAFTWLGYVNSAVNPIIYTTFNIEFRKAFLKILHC

As usually defined, the Ki is a dissociation constant, usually derived from enzyme kinetics or from competition with a known ligand. Take `Cc1nnc(-c2csc(OCCCN3CCN(c4nsc5ccccc45)CC3)n2)o1` [Example-2, 3-(4-{3-[4-(5-Methyl-[1,3,4]oxadiazol-2-yl)-thiazol-2-yloxy]-propyl}-piperazin-1-yl)-benzo[d]isothiazole oxalate]: the Ki in data set [1] worked out at 9.9 nM; in data set [3], 0.15 nM; in data set [4] it was 0.24 nM; in data set [5], 80 nM; in data set [6], 0.41 nM. Further, in data set [2], the Kp at 1 h amounted to 1.25.
As to `Cc1noc(-c2csc(OCCCN3CCN(c4nsc5ccccc45)CC3)n2)n1` [compound 12, 3-(4-{3-[4-(3-Methyl-[1,2,4]oxadiazol-5-yl)-thiazol-2-yloxy]-propyl}-piperazin-1-yl)-benzo[d]isothiazole oxalate], the inhibition constant Ki in data set [1] turned out to be 4.1 nM; in data set [3] it was 0.2 nM; in data set [4], 0.5 nM; in data set [5], 157 nM; in data set [6] it was 0.4 nM. Besides, the Kp at 1 h in data set [2] came to 2.09.
